# Measured values as given in patent publication US9193695B2, “1, 2, 4-triazolone derivative and use thereof as an antagonist on the arginine-vasopressin 1B receptor” (TAISHO PHARMACEUTICAL CO., LTD., priority 2010, dated 2015).
# Counter-ions that a name gives are not always drawn.
# Target: T1, Human V1b receptor (Homo sapiens, UniProt P47901)
# T1 sequence (P47901 1-424): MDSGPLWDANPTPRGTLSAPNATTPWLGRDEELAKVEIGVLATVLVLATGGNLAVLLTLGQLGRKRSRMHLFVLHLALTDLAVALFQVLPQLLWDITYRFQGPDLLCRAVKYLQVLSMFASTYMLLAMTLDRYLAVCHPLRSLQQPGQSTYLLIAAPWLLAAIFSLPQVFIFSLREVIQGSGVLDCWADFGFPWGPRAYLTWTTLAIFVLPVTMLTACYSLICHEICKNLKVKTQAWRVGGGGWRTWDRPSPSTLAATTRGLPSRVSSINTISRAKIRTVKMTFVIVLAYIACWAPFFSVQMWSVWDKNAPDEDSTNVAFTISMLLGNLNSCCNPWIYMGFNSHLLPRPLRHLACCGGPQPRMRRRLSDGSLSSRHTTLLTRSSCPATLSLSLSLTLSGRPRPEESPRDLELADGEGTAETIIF
# Assay: Binding test for V1b receptor ([3H]AVP displacement, crude membrane preparation)
# Design: expressed in transfected cells; host or cells: 293FT cells (Invitrogen), transient expression; crude membrane preparation
# Details: [3H]AVP 0.4 to 1 nmol/L; membranes of 293FT cells transiently expressing human V1b receptor; room temperature, 60 minutes
# Protocol: Binding Test for V1b Receptor
# Human V1b receptor was transiently expressed in 293FT cells (Invitrogen). The cells were collected and were homogenated in a 15 mmol/L tris-hydrochloric acid buffer (pH 7.4, containing 2 mmol/L magnesium chloride, 0.3 mmol/L ethylenediaminetetracetic acid, and 1 mmol/L glycol ether diaminetetraacetic acid). The resulting homogenate was centrifuged at 50,000×g at 4° C. for 20 minutes. The precipitate was resuspended in a 75 mmol/L tris-hydrochloric acid buffer (pH 7.4, containing 12.5 mmol/L magnesium chloride, 0.3 mmol/L ethylenediaminetetracetic acid, 1 mmol/L glycol ether diamine tetraacetic acid, and 250 mmol/L sucrose) to give a crude membrane preparation, which was stored at −80° C. until the binding test. In the binding test, the crude membrane preparation was diluted with a 50 mmol/L tris-hydrochloric acid buffer (pH 7.4, containing 10 mmol/L magnesium chloride and 0.1% bovine serum albumin), and test compound was serially diluted with DMSO. The diluted crude membrane preparation was incubated with each test compound (final concentration of 0.01 nmol/L to 1 μmol/L) and [^3H]AVP (final concentration: 0.4 to 1 nmol/L) at room temperature for 60 minutes. After the incubation, the mixture was suction filtered through a GF/C filter pretreated with 0.3% polyethyleneimine. The GF/C filter was dried, and a scintillator was added thereto. The radioactivity remaining on the filter was measured using TopCount (PerkinElmer Inc.). The radioactivity in the presence of 10 μmol/L of unlabeled AVP was defined as 0%, and the radioactivity in the absence of unlabeled AVP was defined as 100%. A dose-response curve was plotted from radioactivities in the presence of a test compound at various concentrations, and the 50% inhibitory concentration (IC50 value) of the compound was calculated.
row,Compound,IC50
1,"COc1cc(-c2nn(-c3ccc(CCN4CCCCC4)cc3)c(=O)n2CC(=O)NC(C)C)ccc1F [Ca-1, 2-[3-(4-Fluoro-3-methoxyphenyl)-5-oxo-1-{4-[2-(piperidin-1-yl)ethyl]phenyl}-1,5-dihydro-4H-1,2,4-triazol-4-yl]-N-(propan-2-yl)acetamide]",26 nM
2,"COc1cc(-c2nn(-c3ccc(CCN4C5CCC4COC5)cc3)c(=O)n2CC(=O)NC(C)C)ccc1F [Ca-5, 2-[3-(4-Fluoro-3-methoxyphenyl)-1-{4-[2-(3-oxa-8-azabicyclo[3.2.1]oct-8-yl)ethyl]phenyl}-5-oxo-1,5-dihydro-4H-1,2,4-triazol-4-yl]-N-(propan-2-yl)acetamide]",4.4 nM
3,"COc1cc(-c2nn(-c3ccc(CC(C)N4C5CCC4COC5)cn3)c(=O)n2CC(=O)NC(C)C)ccc1F (stereo not drawn) [Cd-3, 2-[3-(4-Fluoro-3-methoxyphenyl)-1-{5-[2-(3-oxa-8-azabicyclo[3.2.1]oct-8-yl)propyl]pyridin-2-yl}-5-oxo-1,5-dihydro-4H-1,2,4-triazol-4-yl]-N-(propan-2-yl)acetamide]",0.55 nM
4,"COc1cc(-c2nn(-c3ccc(CCN4CC=CCC4)cc3)c(=O)n2CC(=O)NC(C)C)ccc1F [Ca-7, 2-[1-{4-[2-(3,6-Dihydropyridin-1(2H)-yl)ethyl]phenyl}-3-(4-fluoro-3-methoxyphenyl)-5-oxo-1,5-dihydro-4H-1,2,4-triazol-4-yl]-N-(propan-2-yl)acetamide]",10 to 100 nM
5,"CC(C)(C)NC(=O)Cn1c(-c2cccc(Cl)c2)nn(-c2ccc(CCN3C4CCC3COC4)cn2)c1=O [Ad-18, N-Tert-Butyl-2-[3-(3-chlorophenyl)-1-{5-[2-(3-oxa-8-azabicyclo[3.2.1]oct-8-yl)ethyl]pyridin-2-yl}-5-oxo-1,5-dihydro-4H-1,2,4-triazol-4-yl]acetamide]",2.6 nM
6,"COc1cccc(-c2nn(-c3ccc(CCN4C5CCC4COC5)cc3)c(=O)n2CC(=O)NC(C)C)c1 [Ba-3, 2-[3-(3-Methoxyphenyl)-1-{4-[2-(3-oxa-8-azabicyclo[3.2.1]oct-8-yl)ethyl]phenyl}-5-oxo-1,5-dihydro-4H-1,2,4-triazol-4-yl]-N-(propan-2-yl)acetamide]",9.4 nM
7,"CC(C)NC(=O)Cn1c(-c2cccc(Cl)c2)nn(-c2ccc(CC(C)N3C4CCC3COC4)cn2)c1=O (stereo not drawn) [Ad-16, 2-[3-(3-Chlorophenyl)-1-{5-[2-(3-oxa-8-azabicyclo[3.2.1]oct-8-yl)propyl]pyridin-2-yl}-5-oxo-1,5-dihydro-4H-1,2,4-triazol-4-yl]-N-(propan-2-yl)acetamide]",0.92 nM
8,"CC(C)NC(=O)Cn1c(-c2ccc(F)c(Cl)c2)nn(-c2ccc(CCN3CCCCC3)cn2)c1=O [Db-1, 2-[3-(3-Chloro-4-fluorophenyl)-5-oxo-1-{5-[2-(piperidin-1-yl)ethyl]pyridin-2-yl}-1,5-dihydro-4H-1,2,4-triazol-4-yl]-N-(propan-2-yl)acetamide]",16 nM
9,"COc1cc(-c2nn(-c3ccc(CCN4CCCC(OC)C4)cc3)c(=O)n2CC(=O)NC(C)C)ccc1F (stereo not drawn) [Ca-11, 2-[3-(4-Fluoro-3-methoxyphenyl)-1-{4-[2-(3-methoxypiperidin-1-yl)ethyl]phenyl}-5-oxo-1,5-dihydro-4H-1,2,4-triazol-4-yl]-N-(propan-2-yl)acetamide]",10 to 100 nM
10,"CC(C)NC(=O)Cn1c(-c2ccc(F)c(Cl)c2)nn(-c2ccc(CCN3CC4(COC4)C3)cc2)c1=O [Da-3, 2-[3-(3-Chloro-4-fluorophenyl)-1-{4-[2-(2-oxa-6-azaspiro[3.3]hept-6-yl)ethyl]phenyl}-5-oxo-1,5-dihydro-4H-1,2,4-triazol-4-yl]-N-(propan-2-yl)acetamide]",32 nM
11,"CC(C)(C)NC(=O)Cn1c(-c2cccc(Cl)c2)nn(-c2ccc(CCN3CCOCC3)cn2)c1=O [Ad-17, N-Tert-Butyl-2-[3-(3-chlorophenyl)-1-{5-[2-(morpholin-4-yl)ethyl]pyridin-2-yl}-5-oxo-1,5-dihydro-4H-1,2,4-triazol-4-yl]acetamide]",3.5 nM
12,"COc1cc(-c2nn(-c3ccc(CCN4C(C)COCC4C)cc3)c(=O)n2CC(=O)NC(C)C)ccc1F (stereo not drawn) [Ca-21, 2-[1-{4-[2-(3,5-Dimethylmorpholin-4-yl)ethyl]phenyl}-3-(4-fluoro-3-methoxyphenyl)-5-oxo-1,5-dihydro-4H-1,2,4-triazol-4-yl]-N-(propan-2-yl)acetamide trifluoroacetate]",10 to 100 nM
13,"COc1cc(-c2nn(-c3ccc(CCN4CC5(CCOCC5)C4)cc3)c(=O)n2CC(=O)NC(C)C)ccc1F [Ca-6, 2-[3-(4-Fluoro-3-methoxyphenyl)-1-{4-[2-(7-oxa-2-azaspiro[3.5]non-2-yl)ethyl]phenyl}-5-oxo-1,5-dihydro-4H-1,2,4-triazol-4-yl]-N-(propan-2-yl)acetamide]",10 to 100 nM

# More lines, now with the values ahead:
row,IC50,Compound
1,48 nM,"CC(C)NC(=O)Cn1c(-c2cccc(C#N)c2)nn(-c2ccc(CCN3CCOCC3)cc2)c1=O [Ea-2, 2-[3-(3-Cyanophenyl)-1-{4-[2-(morpholin-4-yl)ethyl]phenyl}-5-oxo-1,5-dihydro-4H-1,2,4-triazol-4-yl]-N-(propan-2-yl)acetamide]"
2,34 nM,"CC(C)NC(=O)Cn1c(-c2cccc(Cl)c2)nn(-c2ccc(CCN3CCC(CO)C3)cc2)c1=O (stereo not drawn) [Aa-7, 2-[3-(3-Chlorophenyl)-1-(4-{2-[3-(hydroxymethyl)pyrrolidin-1-yl]ethyl}phenyl)-5-oxo-1,5-dihydro-4H-1,2,4-triazol-4-yl]-N-(propan-2-yl)acetamide]"
3,3.8 nM,"CC(C)NC(=O)Cn1c(-c2cccc(Cl)c2)nn(-c2ccc(CCN3CCOCC3)c(F)c2)c1=O [Ad-7, 2-[3-(3-Chlorophenyl)-1-{3-fluoro-4-[2-(morpholin-4-yl)ethyl]phenyl}-5-oxo-1,5-dihydro-4H-1,2,4-triazol-4-yl]-N-(propan-2-yl)acetamide]"
4,96 nM,"CC(CO)NC(=O)Cn1c(-c2cccc(Cl)c2)nn(-c2ccc(CCN3CCOCC3)cc2)c1=O (racemic) [Ad-20, 2-[3-(3-Chlorophenyl)-1-{4-[2-(morpholin-4-yl)ethyl]phenyl}-5-oxo-1,5-dihydro-4H-1,2,4-triazol-4-yl]-N-(1-hydroxypropan-2-yl)acetamide]"
5,97 nM,"O=C(Cn1c(-c2cccc(Cl)c2)nn(-c2ccc(CCN3CCOCC3)cc2)c1=O)NC1COC1 [Ad-5, 2-[3-(3-Chlorophenyl)-1-{4-[2-(morpholin-4-yl)ethyl]phenyl}-5-oxo-1,5-dihydro-4H-1,2,4-triazol-4-yl]-N-(oxetan-3-yl)acetamide]"
6,10 to 100 nM,"COc1cc(-c2nn(-c3ccc(CCN4CCC(F)CC4)cc3)c(=O)n2CC(=O)NC(C)C)ccc1F [Ca-16, 2-[3-(4-Fluoro-3-methoxyphenyl)-1-{4-[2-(4-fluoropiperidin-1-yl)ethyl]phenyl}-5-oxo-1,5-dihydro-4H-1,2,4-triazol-4-yl]-N-(propan-2-yl)acetamide trifluoroacetate]"
7,2.9 nM,"CC(C)NC(=O)Cn1c(-c2cccc(Cl)c2)nn(-c2ccc(CC(C)N3CCOCC3)cc2)c1=O (stereo not drawn) [Ad-13, 2-[3-(3-Chlorophenyl)-1-{4-[2-(morpholin-4-yl)propyl]phenyl}-5-oxo-1,5-dihydro-4H-1,2,4-triazol-4-yl]-N-(propan-2-yl)acetamide]"
8,20 nM,"CC(C)NC(=O)Cn1c(-c2cccc(Cl)c2)nn(-c2ccc(CCN3CCCOCC3)cc2)c1=O [Aa-13, 2-[3-(3-Chlorophenyl)-1-{4-[2-(1,4-oxazepan-4-yl)ethyl]phenyl}-5-oxo-1,5-dihydro-4H-1,2,4-triazol-4-yl]-N-(propan-2-yl)acetamide]"
9,7.1 nM,"CC(C)NC(=O)Cn1c(-c2ccc(F)c(Cl)c2)nn(-c2ccc(CCN3CCOCC3)cn2)c1=O [Db-2, 2-[3-(3-Chloro-4-fluorophenyl)-1-{5-[2-(morpholin-4-yl)ethyl]pyridin-2-yl}-5-oxo-1,5-dihydro-4H-1,2,4-triazol-4-yl]-N-(propan-2-yl)acetamide]"
10,62 nM,"O=C(Cn1c(-c2cccc(Cl)c2)nn(-c2ccc(CCN3CCOCC3)cc2)c1=O)NCC1CC1 [Ad-6, 2-[3-(3-Chlorophenyl)-1-{4-[2-(morpholin-4-yl)ethyl]phenyl}-5-oxo-1,5-dihydro-4H-1,2,4-triazol-4-yl]-N-(cyclopropylmethyl)acetamide]"
11,114 nM,"CC(C)NC(=O)Cn1c(-c2ccccc2)nn(-c2ccc(CCN3CCOCC3)cc2)c1=O [Ga-1, 2-(1-{4-[2-(Morpholin-4-yl)ethyl]phenyl}-5-oxo-3-phenyl-1,5-dihydro-4H-1,2,4-triazol-4-yl)-N-(propan-2-yl)acetamide]"
